According to PMC7160673, “A Degenerate Peptide Library Approach to Reveal Sequence Determinants of Methyllysine-Driven Protein Interactions” (Frontiers in Cell and Developmental Biology, 2020):

How the values were obtained:
Type in all cases: binding
[1] = test system: Abcam #ab8895, anti-H3K4me1; test: Histone peptide microarray, Abcam ab8895; settings: Abcam ab8895 (anti-H3K4me1) hits, average signal per peptide;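 also: normalized to the highest peptide average per subarray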
Method: (§1) Peptide microarrays were fabricated using an Aushon 2470 microarrayer and used as described ([Cornett et al., 2017]) with the following modifications. Protein and antibody hybridization steps were performed in buffer containing 25 mM HEPES pH 7.5, 100 mM NaCl, 0.5% BSA (w/v), and 0.1% NP-40. Slides were washed 3 × 5 min in PBS supplemented with 0.1% Tween-20 between each hybridization step. Antibodies used were primary anti-GST (Sigma #7781, 1:2,000 dilution) and an AlexaFluor 647-labeled secondary antibody (Life Technologies A-21245, 1:5,000 dilution). […] Full lists of peptides queried by array analysis are in Supplementary Table S2.

[2] = test system: Active Motif #39161, anti-H3K9me3; test: Histone peptide microarray, Active Motif 39161; settings: Active Motif 39161 (anti-H3K9me3) hits;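 also: normalized to the highest peptide average per subarray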
Method: as §1

[3] = test system: Millipore #07-449, anti-H3K27me3; test: Histone peptide microarray, Millipore 07-449; settings: Millipore 07-449 (anti-H3K27me3) hits, average signal per peptide;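 also: normalized to the highest peptide average per subarray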
Method: as §1

[4] = test system: 53BP1 TTD; test: Histone peptide microarray, 53BP1 TTD; settings: 53BP1 TTD hits, average signal per peptide
Method: as §1

Substance	Avg Signal [1]	Avg Signal [2]	Avg Signal [3]	Avg Signal [4]
AGGK(Ac)AGK(Ac)DSGK(Ac)AKTKAVSR-Peg-Biot [H2A.Z.1K4acK7acK11ac]	0.0004754	0.0007875	0.00926	–
ARTK(Ac)QTARK(Ac)STGGK(Ac)APRKQL-K(Biot)-NH2 [H3.1K4acK9acK14ac]	–	–	–	0.1165
Ac-APRK(Ac)QLATK(Ac)AARK(Ac)SAPSTGG-Peg-Biot [H3.3K18acK23acK27ac]	–	0.0217	0.005039	–
KSAPSpTGGVKKPHRYRPGT-G-K(Biot)-NH2 [Peptide H3.3T32p]	0.0003862	0.001353	0.006003	–
AGGKAGKDSGKAKTKAVSR-Peg-Biot [H2A.Z.1 unmod (1-19)]	–	–	0.001328	–
ATKAARK(Ac)SAPATGGVK(Me)KPHRYRPG-GK(Biotin)-OH [H3.1K27acK36me1]	0.01424	0.01097	0.006337	–
Ac-SGRGKGGK(Ac)GLGKGGAKRHRK(Ac)VLR-Peg-Biot [Peptide H4K8acK20ac]	–	0.003203	0.001712	–
ARTK(Ac)QTARK(Ac)STGGKAPRKQL-K(Biot)-NH2 [Peptide H3.1K4acK9ac]	–	–	–	0.05583
Ac-SGRGK(Ac)GGK(Ac)GLGK(Me)GGAK(Ac)RHRKVLR-Peg-Biot [H4K5acK8acK12me1K16ac]	0.02773	0.0008155	–	–
Ac-AGGKAGKDSGKAKTKAVSR-Peg-Biot [H2A.Z.1(1-19)N-ac]	0.002647	–	0.007006	–
Ac-pSGRGK(Ac)QGGK(Ac)ARAK(Ac)AK(Ac)TR-Peg-Biot [H2AS1pK5acK9acK13acK15ac]	–	–	–	0.09024
ARTKQTARKSTGGK(Me3)APRKQL-Peg-Biot [Peptide H3.1K14me3]	0.148	–	0.01888	–
KSAPpSTGGVK(Me3)KPHRYRPGTV-K(biotin)-NH2 [H3.3S31pK36me3]	–	0.01189	0.01017	–
KSAPSTGGVK(Ac)KPHRYKPGT-GG-K(Biot)-NH2 [yH3K36ac]	–	–	–	0.06747
IAQDFKTDLRF-Peg-K(Biot)-NH2 [H3.1.1(74-84)]	–	0.003353	–	0.02
Ac-AGGK(Ac)AGK(Ac)DSGK(Ac)AKTKAVSR-Peg-Biot [H2A.Z.1K4acK7acK11acN-ac]	4.222e-5	0.000221	0.0008552	–
Ac-ARAKAKTRSSRAGLQF-Peg-Biotin [H2A(10-25)]	–	–	0.005421	–
Ac-SGR(Me2a)GK(Ac)GGKGLGKGGAKRHRKVLR-K(Biot)-NH2 [Peptide H4R3me2aK5ac]	0.006503	0.0007875	–	–
AGGRAGRDSGRAKTKAVSR-Peg-Biot [H2A.Z.1K4RK7RK11R]	0.03173	0.02573	0.008119	–
Ac-IAQDFKTDLRF-Peg-K(Biot)-NH2 [H3.1.1(74-84)N-ac]	–	0.005943	–	0.06248
Ac-SGRGK(Ac)GGKGLGKGGAK(Ac)RHRKVLR-Peg-Biot [Peptide H4K5acK16ac]	–	0.0002957	0.0005008	–
IHQNLLPKKSAKATKASQ-Peg-Biot [yH2A(112-129)]	0.01029	0.005669	0.0006752	–
IHQNLLPKK-pS-AKATKASQ-Peg-Biot [yH2AS121p]	–	0.006042	0.007624	–
Ac-APRKQLATKAARKpSAPSTGG-Peg-K(Biot)-NH2 [Peptide H3.3S28p]	0.002135	0.006366	0.00807	–
ATKAACitKSAPATGGVKKPHRYRPGGG-K(Biotin)-OH [H3.1K27acK36me3]	0.0002929	0.01207	0.01344	–
Ac-SGRGKQGGKARAKAKTR-Peg-Biot [H2A(1-17)]	–	–	–	0.1243
Ac-RRYQK(Ac)STELL-Peg-Biot [Peptide H3.1K56ac]	–	–	0.004595	–

Substance	Avg Signal [1]	Avg Signal [2]	Avg Signal [3]	Avg Signal [4]
ARTK(Ac)QTARKSTGGKAPRKQL-K(Biot)-NH2 [Peptide H3.1K4ac]	–	0.0285	–	0.1441
KSAPSTGGVK(Me2)KPHRYKPGT-GG-K(Biot)-NH2 [yH3K36me2]	–	–	–	0.8217
ATKAARK(Ac)SAPATGGVK(Me2)KPHRYRPG-GK(Biotin)-OH [H3.1K27acK36me2]	0.002974	0.009849	0.003089	–
Ac-SGRGK(Ac)GGK(Ac)GLGKGGAKRHRKVLR-Peg-Biot [Peptide H4K5acK8ac]	0.0004782	–	0.02195	–
Ac-pSGRGK(Ac)QGGKARAKAKTR-Peg-Biot [Peptide H2AS1pK5ac]	–	0.009305	–	0.01536
Ac-APRKQLATKAARR(Me2a)K(Me)SAPSTGG-Peg-Biot [H3.3R26me2aK27me1]	0.000609	–	0.002329	–
H3.1.1(15-34)	–	0.01508	–	–
Ac-TGGKAPR-NleQLATKAAR-Peg-Biot [Peptide H3.1K18-Nle]	–	0.003627	0.005136	–
ARTKQTARKSpTGGKAPRKQL-Peg-Biot [Peptide H3.1T11p]	0.1657	0.0006879	0.0009523	–
Ac-RRYQK(Me3)STELL-Peg-Biot [Peptide H3.1K56me3]	–	0.01852	0.0004417	–
Ac-APRKQLATKAARK(Ac)SAPSTGG-Peg-Biot [Peptide H3.3K27ac]	0.011	0.002855	–	–
PEPAKSAPAPKKGSKK(Ac)AVTKAQKK-Peg-Biot [Peptide H2BK16ac]	0.001252	0.01682	0.006632	–
Ac-SGRGKGGK(Ac)GLGK(Ac)GGAK(Ac)RHRKVLR-Peg-Biot [H4K8acK12acK16ac]	0.004192	–	0.005254	–
Ac-SGRGK(Ac)GGK(Ac)GLGKGGAK(Ac)RHRKVLR-Peg-Biot [H4K5acK8acK16ac]	–	0.009927	–	–
Ac-IAQDFK(Me)TDLRF-Peg-K(Biot)-NH2 [Peptide H3.1K79me1]	–	0.002481	–	0.009736
Ac-SGRGK(Ac)GGKGLGK(Ac)GGAK(Ac)RHRKVLR-Peg-Biot [H4K5acK12acK16ac]	–	–	0.0005303	–
Ac-APRKQLATKAARK(Ac)SAPATGG-Peg-Biot [Peptide H3.1K27ac]	–	0.002581	0.003716	–
ARTK(Ac)QTARK(Ac)pSTGGK(Ac)APRK(Ac)QL-K(Biot)-NH2 [H3.1K4acK9acS10pK14acK18ac]	–	–	–	0.04385
ARTKQTARKSTGG-NleAPRKQL-Peg-Biot [Peptide H3.1K14-Nle]	0.09623	–	0.0002842	–
PEPAKSAPAPKK(Ac)GSKKAVTKAQKK-Peg-Biot [Peptide H2BK12ac]	–	0.0009681	0.004181	–
ARTKQTAR(Me2s)KSTGGKAPRKQL-Peg-Biot [Peptide H3.1R8me2s]	0.05819	0.0002677	–	–
Biot-Peg-GKKATQASQEY-OH [H2A.X(132-142)]	0.00268	–	0.01738	–
ARTKQTARKSTGGK(Me2)APRKQL-Peg-Biot [Peptide H3.1K14me2]	0.15	0.004075	0.003481	–
ACitTK(Ac)QTARK(Ac)STGGK(Ac)APRK(Ac)QL-K(Biot)-NH2 [H3.1Cit2K4acK9acK14acK18ac]	–	0.003876	–	0.04568
Ac-SGRGK(Pro)GGK(Pro)GLGK(Pro)GGAKRHRKVLR-Peg-Biot [H4K5proK8proK12pro]	–	0.005323	0.02856	–
KSAPSTGGVKKPHRYKPGT-GG-K(Biot)-NH2 (C-terminal GG-K(biotin) amide) [yH3.1(27-45)]	–	–	–	0.1127
